# Experiments:
# [1] = test system: Italian ryegrass; assay: Test Example 4: herbicidal effect by soil treatment (Table 19, symbol K); assay type: in vivo, Italian ryegrass (Lolium multiflorum)
# Method in brief: (§1)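 In this soil treatment, the formulated compound reached the seeds only through the soil: seeds were buried about 1.5 cm deep in sterilized diluvial soil, then the diluted emulsion was sprayed over the surface. After three weeks at 25° C. to 30° C. in a greenhouse, effects were graded on criteria from an earlier test.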
# [2] = test system: barnyard grass; assay: Test Example 5: herbicidal effect by foliage application, plastic box (Table 20, symbol H); assay type: in vivo, barnyard grass (Echinochloa crus-galli); conditions: foliage application, 320 g/ha
# Method in brief: (§2)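 Plants were sown into sterilized diluvial soil under about 1.5 cm cover and kept in a greenhouse at 25° C. to 30° C. Fourteen days on, foliage received an even spray of the diluted emulsion. Herbicidal or crop effect was judged three weeks afterwards.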
# [3] = test system: southern crabgrass; assay: Test Example 5: herbicidal effect by foliage application, plastic box (Table 20, symbol F); assay type: in vivo, southern crabgrass (Digitaria ciliaris); conditions: foliage application, 320 g/ha
# Method in brief: as §2
# [4] = test system: green foxtail; assay: Test Example 5: herbicidal effect by foliage application, plastic box (Table 20, symbol G); assay type: in vivo, green foxtail (Setaria viridis); conditions: foliage application, 320 g/ha
# Method in brief: as §2
# [5] = test system: windgrass; assay: Test Example 5: herbicidal effect by foliage application, plastic box (Table 20, symbol L); assay type: in vivo, windgrass (Apera spica-venti); conditions: foliage application, 320 g/ha
# Method in brief: as §2
# [6] = test system: windgrass; assay: Test Example 4: herbicidal effect by soil treatment (Table 19, symbol L); assay type: in vivo, windgrass (Apera spica-venti)
# Method in brief: as §1
# [7] = test system: southern crabgrass; assay: Test Example 4: herbicidal effect by soil treatment (Table 19, symbol F); assay type: in vivo, southern crabgrass (Digitaria ciliaris)
# Method in brief: as §1
# [8] = test system: Chinese sprangletop; assay: Test Example 3: herbicidal effect by foliage application, Wagner pot (Table 18, symbol D); assay type: in vivo, chinese sprangletop (Leptochloa chinensis)
# Method in brief: (§3)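 Plants were sown in alluvial soil held under 0.1–0.5 cm standing water and grown 14 days in a greenhouse at 25–30 °C. An emulsifiable formulation, water-diluted to the set dose, was then sprayed onto the foliage, and effects were scored three weeks later using previously defined criteria.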
# [9] = test system: blackgrass; assay: Test Example 4: herbicidal effect by soil treatment (Table 19, symbol J); assay type: in vivo, blackgrass (Alopecurus myosuroides)
# Method in brief: as §1
# [10] = test system: chickweed; assay: Test Example 4: herbicidal effect by soil treatment (Table 19, symbol P); assay type: in vivo, common chickweed (Stellaria media); conditions: AAH 320 g/ha
# Method in brief: as §1
# [11] = test system: wild oat; assay: Test Example 4: herbicidal effect by soil treatment (Table 19, symbol I); assay type: in vivo, wild oat (Avena fatua)
# Method in brief: as §1
# [12] = test system: lambsquarters; assay: Test Example 4: herbicidal effect by soil treatment (Table 19, symbol O); assay type: in vivo, lambsquarters (Chenopodium album)
# Method in brief: as §1
# [13] = test system: lambsquarters; assay: Test Example 5: herbicidal effect by foliage application, plastic box (Table 20, symbol O); assay type: in vivo, lambsquarters (Chenopodium album); conditions: foliage application, 320 g/ha
# Method in brief: as §2
# [14] = test system: persian speedwell; assay: Test Example 5: herbicidal effect by foliage application, plastic box (Table 20, symbol R); assay type: in vivo, Persian speedwell (Veronica persica); conditions: foliage application, 320 g/ha
# Method in brief: as §2
# [15] = test system: redroot pigweed; assay: Test Example 4: herbicidal effect by soil treatment (Table 19, symbol N); assay type: in vivo, redroot pigweed (Amaranthus retroflexus)
# Method in brief: as §1
# [16] = test system: barnyard grass; assay: Test Example 3: herbicidal effect by foliage application, Wagner pot (Table 18, symbol H); assay type: in vivo, barnyard grass (Echinochloa crus-galli)
# Method in brief: as §3
# [17] = test system: barnyard grass; assay: Test Example 4: herbicidal effect by soil treatment (Table 19, symbol H); assay type: in vivo, barnyard grass (Echinochloa crus-galli)
# Method in brief: as §1
# [18] = test system: Italian ryegrass; assay: Test Example 5: herbicidal effect by foliage application, plastic box (Table 20, symbol K); assay type: in vivo, Italian ryegrass (Lolium multiflorum); conditions: foliage application, 320 g/ha
# Method in brief: as §2
# [19] = test system: velvetleaf; assay: Test Example 5: herbicidal effect by foliage application, plastic box (Table 20, symbol M); assay type: in vivo, velvetleaf (Abutilon theophrasti); conditions: foliage application, 320 g/ha
# Method in brief: as §2
# [20] = test system: wild oat; assay: Test Example 5: herbicidal effect by foliage application, plastic box (Table 20, symbol I); assay type: in vivo, wild oat (Avena fatua); conditions: foliage application, 320 g/ha
# Method in brief: as §2
# [21] = test system: green foxtail; assay: Test Example 4: herbicidal effect by soil treatment (Table 19, symbol G); assay type: in vivo, green foxtail (Setaria viridis)
# Method in brief: as §1
# [22] = test system: velvetleaf; assay: Test Example 4: herbicidal effect by soil treatment (Table 19, symbol M); assay type: in vivo, velvetleaf (Abutilon theophrasti)
# Method in brief: as §1
# [23] = test system: rice flat sedge; assay: Test Example 3: herbicidal effect by foliage application, Wagner pot (Table 18, symbol E); assay type: in vivo, rice flat sedge (Cyperus iria)
# Method in brief: as §3
# [24] = test system: blackgrass; assay: Test Example 5: herbicidal effect by foliage application, plastic box (Table 20, symbol J); assay type: in vivo, blackgrass (Alopecurus myosuroides); conditions: foliage application, 320 g/ha
# Method in brief: as §2
# [25] = test system: persian speedwell; assay: Test Example 4: herbicidal effect by soil treatment (Table 19, symbol R); assay type: in vivo, Persian speedwell (Veronica persica)
# Method in brief: as §1
# [26] = test system: redroot pigweed; assay: Test Example 5: herbicidal effect by foliage application, plastic box (Table 20, symbol N); assay type: in vivo, redroot pigweed (Amaranthus retroflexus); conditions: foliage application, 320 g/ha, evaluated three weeks after application
# Method in brief: as §2
# [27] = test system: chickweed; assay: Test Example 5: herbicidal effect by foliage application, plastic box (Table 20, symbol P); assay type: in vivo, common chickweed (Stellaria media); conditions: foliage application, 320 g/ha, evaluated three weeks after application
# Method in brief: as §2
# [28] = amount of applied herbicide 320 g/ha
# [29] = evaluated three weeks after application
compound,measurement,setting,value
COCCSCc1ccc(-c2sc3ccccc3c2-c2c(O)c(C)nn(C)c2=O)cc1 [1-251],"K: Italian ryegrass, herbicidal effect rating",[1]; AAH 320 g/ha,0 (Herbicidal rate of 5% or less (almost no effect))
same,effect on barnyard grass (H),[2]; 3 weeks after application,4 (Herbicidal rate of 70% or more and less than 90%)
same,effect on southern crabgrass (F),[3]; 3 weeks after application,1 (Herbicidal rate of 5% or more and less than 20%)
same,effect on green foxtail (G),[4]; 3 weeks after application,5 (Herbicidal rate of 90% or more (almost completely withered))
same,effect on windgrass (L),[5]; 3 weeks after application,0 (Herbicidal rate of 5% or less (almost no effect))
same,"L: windgrass, herbicidal effect rating",[6]; AAH 320 g/ha,0 (Herbicidal rate of 5% or less (almost no effect))
same,"F: southern crabgrass, herbicidal effect rating",[7]; AAH 320 g/ha,0 (Herbicidal rate of 5% or less (almost no effect))
same,"herbicidal effect on D (Chinese sprangletop), rating 0-5",[8]; 320 g/ha,3 (Herbicidal rate of 40% or more and less than 70%)
same,"J: blackgrass, herbicidal effect rating",[9]; AAH 320 g/ha,0 (Herbicidal rate of 5% or less (almost no effect))
same,"P: chickweed, herbicidal effect rating",[10],0 (Herbicidal rate of 5% or less (almost no effect))
same,"I: wild oat, herbicidal effect rating",[11]; AAH 320 g/ha,0 (Herbicidal rate of 5% or less (almost no effect))
same,"O: lambsquarters, herbicidal effect rating",[12]; AAH 320 g/ha,0 (Herbicidal rate of 5% or less (almost no effect))
same,effect on lambsquarters (O),[13]; 3 weeks after application,4 (Herbicidal rate of 70% or more and less than 90%)
same,effect on persian speedwell (R),[14]; 3 weeks after application,5 (Herbicidal rate of 90% or more (almost completely withered))
same,"N: redroot pigweed, herbicidal effect rating",[15]; AAH 320 g/ha,0 (Herbicidal rate of 5% or less (almost no effect))
same,"herbicidal effect on H (barnyard grass), rating 0-5",[16]; 320 g/ha,5 (Herbicidal rate of 90% or more (almost completely withered))
same,"H: barnyard grass, herbicidal effect rating",[17]; AAH 320 g/ha,0 (Herbicidal rate of 5% or less (almost no effect))
same,effect on Italian ryegrass (K),[18]; 3 weeks after application,4 (Herbicidal rate of 70% or more and less than 90%)
same,effect on velvetleaf (M),[19]; 3 weeks after application,5 (Herbicidal rate of 90% or more (almost completely withered))
same,effect on wild oat (I),[20]; 3 weeks after application,0 (Herbicidal rate of 5% or less (almost no effect))
same,"G: green foxtail, herbicidal effect rating",[21]; AAH 320 g/ha,0 (Herbicidal rate of 5% or less (almost no effect))
same,"M: velvetleaf, herbicidal effect rating",[22]; AAH 320 g/ha,0 (Herbicidal rate of 5% or less (almost no effect))
same,"herbicidal effect on E (rice flat sedge), rating 0-5",[23]; 320 g/ha,3 (Herbicidal rate of 40% or more and less than 70%)
same,effect on blackgrass (J),[24]; 3 weeks after application,3 (Herbicidal rate of 40% or more and less than 70%)
same,"R: persian speedwell, herbicidal effect rating",[25]; AAH 320 g/ha,4 (Herbicidal rate of 70% or more and less than 90%)
CCCC(=O)Oc1c(C)nn(C)c(=O)c1-c1c(-c2cccc(OC(C)C)c2)sc2ccc(F)cc12 [2-216],"K: Italian ryegrass, herbicidal effect rating",[1]; [28],4 (Herbicidal rate of 70% or more and less than 90%)
same,herbicidal effect on H: barnyard grass (criteria 0-5),[2]; [29],4 (Herbicidal rate of 70% or more and less than 90%)
same,herbicidal effect on F: southern crabgrass (criteria 0-5),[3]; [29],5 (Herbicidal rate of 90% or more (almost completely withered))
same,herbicidal effect on G: green foxtail (criteria 0-5),[4]; [29],5 (Herbicidal rate of 90% or more (almost completely withered))
same,herbicidal effect on L: windgrass (criteria 0-5),[5]; [29],3 (Herbicidal rate of 40% or more and less than 70%)
same,"L: windgrass, herbicidal effect rating",[6]; [28],0 (Herbicidal rate of 5% or less (almost no effect))
same,"F: southern crabgrass, herbicidal effect rating",[7]; [28],3 (Herbicidal rate of 40% or more and less than 70%)
same,herbicidal effect on D: Chinese sprangletop,[8]; [28],3 (Herbicidal rate of 40% or more and less than 70%)
same,"J: blackgrass, herbicidal effect rating",[9]; [28],0 (Herbicidal rate of 5% or less (almost no effect))
same,"I: wild oat, herbicidal effect rating",[11]; [28],0 (Herbicidal rate of 5% or less (almost no effect))
same,"O: lambsquarters, herbicidal effect rating",[12]; [28],0 (Herbicidal rate of 5% or less (almost no effect))
same,herbicidal effect on O: lambsquarters (criteria 0-5),[13]; [29],3 (Herbicidal rate of 40% or more and less than 70%)
same,herbicidal effect on R: persian speedwell (criteria 0-5),[14]; [29],5 (Herbicidal rate of 90% or more (almost completely withered))
same,"N: redroot pigweed, herbicidal effect rating",[15]; [28],3 (Herbicidal rate of 40% or more and less than 70%)
same,herbicidal effect on H: barnyard grass,[16]; [28],5 (Herbicidal rate of 90% or more (almost completely withered))
same,"H: barnyard grass, herbicidal effect rating",[17]; [28],2 (Herbicidal rate of 20% or more and less than 40%)
same,herbicidal effect on K: Italian ryegrass (criteria 0-5),[18]; [29],4 (Herbicidal rate of 70% or more and less than 90%)
same,herbicidal effect on N: redroot pigweed (criteria 0-5),[26],5 (Herbicidal rate of 90% or more (almost completely withered))
same,herbicidal effect on M: velvetleaf (criteria 0-5),[19]; [29],3 (Herbicidal rate of 40% or more and less than 70%)
same,herbicidal effect on I: wild oat (criteria 0-5),[20]; [29],0 (Herbicidal rate of 5% or less (almost no effect))
same,"G: green foxtail, herbicidal effect rating",[21]; [28],2 (Herbicidal rate of 20% or more and less than 40%)
same,herbicidal effect on P: chickweed (criteria 0-5),[27],5 (Herbicidal rate of 90% or more (almost completely withered))
same,"M: velvetleaf, herbicidal effect rating",[22]; [28],2 (Herbicidal rate of 20% or more and less than 40%)
same,herbicidal effect on E: rice flat sedge,[23]; [28],4 (Herbicidal rate of 70% or more and less than 90%)
same,herbicidal effect on J: blackgrass (criteria 0-5),[24]; [29],0 (Herbicidal rate of 5% or less (almost no effect))
same,"R: persian speedwell, herbicidal effect rating",[25]; [28],5 (Herbicidal rate of 90% or more (almost completely withered))

# Source: patent publication US20230085307A1, “PYRIDAZINONE COMPOUND AND HERBICIDE” (NISSAN CHEMICAL CORPORATION, priority 2019, published 2023)
